Test results published in publication PMC4610306 (Journal of Medicinal Chemistry, 2015).
“Also recorded” adds a separate entry of the source.

How the values were obtained:
PAD2 = PAD2 (Homo sapiens, UniProt Q9Y2J8); assay: Inactivation kinetics; format: biochemical
U2OS cells = assay: Cell viability, colorimetric XTT assay; format: cell-based, human
mouse neutrophils = assay: NET formation, PMA-stimulated neutrophils, DNA/neutrophil elastase overlap assay; format: cell-based; details: Cl-amidine as reference
[1] = Murine hepatic microsome stability assay; format: in vitro ADME, mouse

Sequence of PAD2 (Q9Y2J8 whole entry): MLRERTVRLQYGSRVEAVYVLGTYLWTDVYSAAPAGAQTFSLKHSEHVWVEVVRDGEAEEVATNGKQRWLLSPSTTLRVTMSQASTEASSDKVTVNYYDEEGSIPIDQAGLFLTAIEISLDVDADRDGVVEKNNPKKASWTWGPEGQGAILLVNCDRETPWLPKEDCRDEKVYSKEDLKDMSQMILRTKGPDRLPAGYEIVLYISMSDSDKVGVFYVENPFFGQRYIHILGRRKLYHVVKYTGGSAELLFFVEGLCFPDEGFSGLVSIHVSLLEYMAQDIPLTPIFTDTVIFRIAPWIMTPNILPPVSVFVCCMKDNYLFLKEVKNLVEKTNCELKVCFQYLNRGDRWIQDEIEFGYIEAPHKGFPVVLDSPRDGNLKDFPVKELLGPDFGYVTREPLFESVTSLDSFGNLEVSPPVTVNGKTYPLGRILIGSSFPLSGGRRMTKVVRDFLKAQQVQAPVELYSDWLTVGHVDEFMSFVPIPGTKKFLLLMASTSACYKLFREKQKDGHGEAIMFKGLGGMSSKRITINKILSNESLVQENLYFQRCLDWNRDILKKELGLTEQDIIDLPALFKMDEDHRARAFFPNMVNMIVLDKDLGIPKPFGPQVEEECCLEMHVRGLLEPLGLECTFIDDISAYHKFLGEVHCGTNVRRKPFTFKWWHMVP

SMILES	kinact/KI (PAD2) [M⁻¹ s⁻¹]	EC50 improvement over parent compound Cl-amidine (U2OS cells) [fold]	inhibition of NET formation (mouse neutrophils)	other results
CC(C)(C)n1nnc([C@H](CCCNC(=N)CCl)NC(=O)c2ccc(-c3ccccc3)cc2)n1 [Compound 13, biphenyl tetrazole tert-butyl Cl-amidine]	–	16	significantly more potent than Cl-amidine; also recorded: significantly reduces NET formation compared to Cl-amidine	effect on cell growth / cell viability (U2OS cells; 20 μM, 72 h, XTT): completely abolished cell growth; also recorded: completely abolishes the growth
CC(C)(C)n1nnc([C@H](CCCNC(=N)CF)NC(=O)c2ccc(-c3ccccc3)cc2)n1 [Compound 14, biphenyl tetrazole tert-butyl-F-amidine]	–	3.5	–	–
CC(C)(C)n1nnc([C@H](CCCNC(=N)CCl)NC(=O)c2ccccc2C(=O)O)n1 [Compound 21, o-carboxyl tetrazole tert-butyl Cl-amidine]	–	–	inhibits NET formation only at very high concentrations; also recorded: inhibits NET formation at higher doses	stability / half-life in mouse hepatic microsomes [1]: half-life mimics those obtained for the fluoro analogs

The next lines start with results.

kinact/KI (PAD2) [M⁻¹ s⁻¹]	EC50 improvement over parent compound Cl-amidine (U2OS cells) [fold]	SMILES	inhibition of NET formation (mouse neutrophils)	other results
125	–	CC(C)(C)n1nnc([C@H](CCCNC(=N)CCl)NC(=O)c2ccccc2)n1 [Compound 6, tetrazole tert-butyl Cl-amidine]	–	–
108	–	CC(C)(C)n1nnc([C@H](CCCNC(=N)CF)NC(=O)c2ccccc2)n1 [Compound 7, tetrazole tert-butyl-F-amidine]	–	–
6.33	–	N=C(CF)NCCC[C@H](NC(=O)c1ccccc1)C(N)=O [F-amidine, reference compound]	–	–
